{"source": "patent US20150328221A1", "about": "“COMPOUNDS FOR PROTECTION OF PHOTORECEPTOR CELLS AND FOR ENHANCING VISUAL FUNCTION UNDER LOW LIGHT CONDITIONS” (Allergan, Inc., priority 2014, published 2015)", "key": {"rod photoreceptors": {"test_system": "rod photoreceptors", "experiment": "Scotopic flash ERG (a- and b-wave) after blue light-induced injury, model of dry AMD", "type": "in vivo, rat", "conditions": "for protection of retinal signaling: doses greater of 1 mg/kg, blue-light induced damage model in rodent; for protection of rod photoreceptors from blue light-induced injury: model of dry AMD", "source_text": "Seven days after exposure to 10,000 lux blue light, the amplitude of a- and b-wave components of the electroretinogram (ERG) is reduced to 20-30% of its pre-exposure amplitude (FIG. 4A). The ERG signals from median respondents in each group are shown in the inset in A. The tracing designated “α” illustrates the signal evoked in a naïve animal when stimulated with 20 candela-sec/m^2 white light. […] Full dose response showing the dose and corresponding retinal concentration of zalospirone is shown in the bar graph (FIG. 4A).\nSeven days after exposure to 10,000 lux blue light, the amplitude of a- and b-wave components of the electroretinogram (ERG) is reduced to 20-30% of its pre-exposure amplitude (A). Full dose response showing the dose and corresponding retinal concentration of eptapirone is shown in the bar graph (A). The respective doses and corresponding retinal concentrations achieved following subcutaneous administration of eptapirone are shown on the abscissa. Data is plotted as the mean±SEM percentage of a- or b-wave measured prior to blue light-induced retinal degeneration. Protection of retinal architecture measured as the area of the outer nuclear layer (B) or the size of the lesion (C) in a section taken through the vertical meridian of the eye. H&E stained sections of from the median respondent, naïve and vehicle- or drug-treated animals illustrate the level protection achieved by treatment with 0.3 mg/kg eptapirone.\n(§1) Bilateral flash ERG recordings on the dual dome Espion E^3 system (Diagnosys, LLC) were made prior to (baseline) and on the Day of zalospirone administration. Animals were anesthetized with a cocktail of 30 mg/mL Ketamine/0.2 mg/mL Dexmedetomidine (i.m.) to reach a final dose of 15 mg/kg Ketamine and 0.1 mg/kg Dexmedetomidine. Animals' eyes were given 1 drop each of 1% phenylephrine, 0.5% atropine and 1% proparacaine, sequentially. Noninvasive platinum wire loop electrodes moisturized with artificial tears (Goniovisc, Sigmapharmaceuticals, Inc.) were placed over the eyes, a reference electrode were placed in the bridge of the nose and a ground wire into the tail. Scotopic ERG measurements were made at 1e^−5 to 20 cd s/m^2. Photopic ERG measurements for S- and M-cone function were made at 8e^−4 to 40 cd s/m^2. The recording filter was set at 300 Hz.\n(§2) Protection of rod photoreceptors by zalospirone from light induced injury is exemplified in FIG. 4 and by eptapirone in FIG. 5 below. Doses greater of 1 mg/kg provide 100% protection of structural integrity of the outer nuclear layer and 80% of retinal signaling in a blue-light induced damage model in rodent."}, "[1]": {"test_system": "rod photoreceptors / outer nuclear layer", "experiment": "Histological analysis (H&E) of retinal architecture after blue light-induced injury", "type": "in vivo, rat", "conditions": "for retinal lesion (loss of photoreceptors) measured in the vertical meridian of the eye: blue light injury, maximal damage 1.5 mm superior to the optic nerve head; for protection of structural integrity of the outer nuclear layer: doses greater of 1 mg/kg, blue-light induced damage model in rodent; for outer nuclear cell count and retinal structure (H&E stained retinas): post-blue light, drug-treated vs naive and vehicle-treated retinae", "method": "Protection of retinal architecture measured as the total count of photoreceptors (FIG. 4B) or the size of the lesion (FIG. 4C) in the section taken through the vertical meridian of the eye. (FIG. 4D) H&E stained sections of from the median respondent, naïve and vehicle- or drug-treated animals illustrate the level protection achieved by treatment with 1 mg/kg zalospirone.\nOn Day 7 post BL-exposure, animals were anesthetized with Euthasol and decapitated. Following decapitation, bilateral globes were enucleated and marked at the 12:00 position with black tissue ink. Both eyes from each animal were incubated in 5 mL of Davidson's fixative special overnight at RT. After ˜24 hours, both eyes were dehydrated in 50% ethanol (EtOH) for 1 hour at RT followed by storage in 70% EtOH at RT until paraffin processing. Eyes were then shipped to Premier Lab (Longmont, Colo.) for paraffin processing and embedding. Five micrometer thick paraffin sections were cut through the optic nerve head and mounted on glass.\nFor each eye, three H&E-stained slides were generated. Slides containing H&E-stained cross sections were imaged using the Nanozoomer whole slide scanner employing a 40× objective under bright field optics.\nas §2"}, "cone photoreceptors [2]": {"test_system": "cone photoreceptors", "experiment": "Photopic ERG for S- and M-cone function after blue light-induced injury", "type": "in vivo, rat", "conditions": "pretreatment with 3 mg/kg; 7 days after 10,000 lux blue light", "source_text": "(§3) FIG. 6A to 6E illustrate that zalospirone protects cone photoreceptors from blue light-induced injury in a model of dry AMD. […] The amplitude of the medium-wave (blue- and green-light responsive) cone driven ERG signals were reduced by >90% while the short-wave (ultra violet and blue-light responsive) cone signals were virtually eliminated (A, B).\nas §1\nThe protection of cone photoreceptors by zalospirone from light induced injury is exemplified in FIG. 6 below."}, "cone photoreceptors [3]": {"test_system": "cone photoreceptors", "experiment": "Anti-opsin immunofluorescence in retinal cross sections after blue light-induced injury", "type": "in vivo, rat", "conditions": "pretreatment with 3 mg/kg", "source_text": "as §3\nA subset of 5 μm thick paraffin sections cut through the vertical meridian (prepared by Premier Labs) was not stained with H&E, but instead was subjected to anti-opsin immunofluorescent staining to detect both SW and M/L cones. Briefly, sections were baked at 60° C. for 1 hr, deparaffinized in xylene, rehydrated in a decreasing series of alcohols, rinsed in PBS 3×, and blocked in PBS containing 0.1% Tween 20, 0.1% Triton×100, and 5% normal donkey serum for 2 hr at RT. Slides were reacted 0/N at 4° C. with a combined mixture of anti-SW (SCBT; SC-14363) and -M/L (Millipore, Ab5405) opsin antibodies diluted to 1:200 and 1:500, respectively in a PBS buffer containing 0.1% Tween 20, 0.1% Triton×100, and 5% normal donkey serum. To control for specificity of staining, an additional subset of slides were reacted with a combined mixture of anti-SW opsin antibody preadsorbed with sc-14363/blocking peptide and normal rabbit IgG. […] The number of SW and M/L cones was manually counted for both slides from each study eye in dual channel fluorescent images. […]"}, "retinal signaling": {"test_system": "retinal signaling", "experiment": "Full-field ERG (modified ISCEV protocols) in normal animals, scotopic and photopic", "type": "in vivo, rat", "method": "FIG. 7 illustrates that zalospirone selectively enhances the scotopic b-wave. Visual function was assessed in vivo in the rat using standard ISCEV protocols. Measurements were made under scotopic (dark-adapted) conditions (“A”-“C”) or photopic conditions (“D”,“E”). In dark adapted animals, ERG recordings elicited by low intensity stimuli (1×10^−4 candela-sec m^2) treatment with 3 mg/kg zalospirone results in a 50% enhancement of the b-wave (“A”). […] Under photopic conditions signals predominately driven by the cone photoreceptors, the photopic b-wave (“D”) or ERG response to 20 Hz flicker (“E”) were unaffected by treatment with zalospirone (3 mg/kg).\nFIG. 8 “A” to “C” illustrates that zalospirone selectively enhances the scotopic b-wave.\nas §1\nIn addition to protecting retinal photoreceptors and preserving their function during exposure to an insult, the enhancement or normalization of retinal signaling after injury would be provide significant value in degenerative retinal diseases. The International Society for Clinical Electrophysiology of Vision (ISCEV) provides standards for ascertaining the effects of interventions on retinal signaling. […] Expanding on the observation that scotopic signaling was enhanced in normal animals, it was hypothesized that zalospirone could contribute to the normalization of retinal signaling following injury."}, "scotopic b-wave": {"test_system": "scotopic b-wave", "experiment": "Scotopic b-wave ERG with treatment after blue light-induced injury", "type": "in vivo, Sprague Dawley rat", "conditions": "single subcutaneous 3 mg/kg given after blue light injury (3.5 hour, 10,000 lux); stimulus 10^−5 candela-sec/m^2; N=8", "method": "FIGS. 9A and 9B illustrate that treatment with zalospirone restores of the amplitude of the scotopic b-wave following light induced injury. FIG. 9A is a representative ERG recordings from a Sprague Dawley rat which was dark adapted overnight and exposed to white light stimulus (10^−5 candela-sec/m^2) are shown at baseline before injury, 7 days following exposure to a 3.5 hour exposure to 10,000 lux blue light and again at 3 days later following a single subcutaneous administration to 3 mg/kg zalospirone. […] The data are presented as mean±SEM, N=8.\nas §1, with “The recording filter was set at 300 Hz.” left out"}, "5-HT1A receptor": {"target": "T1, 5-HT1A receptor (Homo sapiens, UniProt P08908)", "T1 sequence (P08908 1-422)": "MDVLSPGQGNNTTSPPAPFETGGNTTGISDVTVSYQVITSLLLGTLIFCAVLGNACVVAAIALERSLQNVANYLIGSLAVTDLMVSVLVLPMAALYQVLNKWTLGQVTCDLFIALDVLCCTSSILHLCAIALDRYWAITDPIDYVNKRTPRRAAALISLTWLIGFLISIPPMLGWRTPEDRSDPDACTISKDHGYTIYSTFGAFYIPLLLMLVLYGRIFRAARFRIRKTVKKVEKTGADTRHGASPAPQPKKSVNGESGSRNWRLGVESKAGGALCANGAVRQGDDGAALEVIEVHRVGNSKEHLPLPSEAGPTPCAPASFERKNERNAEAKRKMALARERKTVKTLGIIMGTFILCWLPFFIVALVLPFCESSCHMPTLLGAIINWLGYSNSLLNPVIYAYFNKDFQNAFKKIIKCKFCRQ", "conditions": "description of the compound; cited from earlier work"}, "[4]": {"conditions": "7 days after 10,000 lux blue light"}, "[5]": {"conditions": "3 mg/kg, dark adapted, 20 candela-sec m^2"}, "[6]": {"conditions": "3 mg/kg, photopic conditions, normal animals"}}, "note": "Entries after “also recorded” stand apart in the source; their conditions may differ.", "data": [{"smiles": "O=C1[C@@H]2C3C=CC([C@H]4CC[C@@H]34)[C@@H]2C(=O)N1CCCCN1CCN(c2ncccn2)CC1", "note": "[zalospirone, (3aα,4α,4aβ,6aβ,7α,7aα)-hexahydro-2-(4-(4-(2-pyrimidinyl)-1-piperazinyl)butyl)-4,7-etheno-1H-cyclobut(f)isoindole-1,3(2H)-dione]", "values": [{"measurement": "protection of retinal signaling", "setting": "rod photoreceptors", "value": 80, "unit": "%"}, {"measurement": "protection of the ERG signal", "setting": "rod photoreceptors; median animal dosed with 3 mg/kg, 7 days after 10,000 lux blue light, 20 candela-sec/m^2 white light stimulus", "value": "complete protection"}, {"measurement": "protection of rod photoreceptors from blue light-induced injury", "setting": "rod photoreceptors; [4]", "value": "protects rod photoreceptors from blue light-induced injury"}, {"measurement": "retinal lesion (loss of photoreceptors) measured in the vertical meridian of the eye", "setting": "[1]", "value": "almost entirely prevents this lesion from forming"}, {"measurement": "protection of structural integrity of the outer nuclear layer", "setting": "[1]", "value": 100, "unit": "%"}, {"measurement": "outer nuclear cell count and retinal structure (H&E stained retinas)", "setting": "[1]", "value": "maintains outer nuclear cell count but also normalizes retinal structure"}, {"measurement": "photopic b-wave amplitude (medium-wave and short-wave cone driven ERG signals)", "setting": "cone photoreceptors [2]", "value": "significantly protected; also recorded: largely restored ERG signaling"}, {"measurement": "cones by short wave and medium/long wave opsin immunofluorescent staining", "setting": "cone photoreceptors [3]", "value": "virtually identical to that in naïve animals; also recorded: prevents the loss of cones"}, {"measurement": "rod-based signaling (scotopic b-wave)", "setting": "retinal signaling; 3 mg/kg, dark adapted rats, low intensity stimuli ≦10^−3 candelas-sec/m^2", "value": "preferentially augments rod-based signaling"}, {"measurement": "retinal oscillatory potentials", "setting": "retinal signaling; [5]", "value": "neither the b-wave (“B”) nor the retinal oscillatory potentials (“C”) were affected"}, {"measurement": "scotopic b-wave at greater intensity stimuli", "setting": "retinal signaling; [5]", "value": "neither the b-wave (“B”) nor the retinal oscillatory potentials (“C”) were affected"}, {"measurement": "enhancement of the scotopic b-wave", "setting": "retinal signaling; 3 mg/kg, dark adapted, low intensity stimuli 1×10^−4 candela-sec m^2", "value": 50, "unit": "%"}, {"measurement": "ERG response to 20 Hz flicker", "setting": "retinal signaling; [6]", "value": "unaffected"}, {"measurement": "photopic b-wave", "setting": "retinal signaling; [6]", "value": "unaffected"}, {"measurement": "scotopic signaling, modified ISCEV full-field electroretinography", "setting": "retinal signaling; rat", "value": "selectively enhanced scotopic signaling"}, {"measurement": "scotopic b-wave amplitude after injury compared with baseline", "setting": "scotopic b-wave", "value": "fully restored the b-wave to its baseline amplitude; also recorded: restored b-wave amplitudes to the baseline levels"}, {"measurement": "5-HT1A receptor activity", "setting": "5-HT1A receptor", "value": "selective 5-HT1A partial agonist"}]}, {"smiles": "Cn1c(=O)cnn(CCCCN2CCN(c3ncccn3)CC2)c1=O", "note": "[eptapirone, 4-Methyl-2-[4-(4-pyrimidin-2-yl-piperazin-1-yl)-butyl]-2H-[1,2,4]triazine-3,5-dione]", "values": [{"measurement": "protection of retinal signaling", "setting": "rod photoreceptors", "value": 80, "unit": "%"}, {"measurement": "protection of rod photoreceptors from blue light-induced injury", "setting": "rod photoreceptors; [4]", "value": "protects rod photoreceptors from blue light-induced injury"}, {"measurement": "retinal lesion (loss of photoreceptors) measured in the vertical meridian of the eye", "setting": "[1]", "value": "almost entirely prevents this lesion from forming"}, {"measurement": "protection of structural integrity of the outer nuclear layer", "setting": "[1]", "value": 100, "unit": "%"}, {"measurement": "outer nuclear cell count and retinal structure (H&E stained retinas)", "setting": "[1]", "value": "maintains outer nuclear cell count but also normalizes retinal structure"}, {"measurement": "5-HT1A receptor activity", "setting": "5-HT1A receptor", "value": "very potent and highly selective 5-HT1A receptor full agonist"}]}]}
